The text below walks through data of patent publication US20240246941A1, “SUBSTITUTED 4-(3-AMINOPROP-1-YL)AMINOQUINOLINE ANALOGS AS MODULATORS OF MELANOMA-ASSOCIATED ANTIGEN 11 UBIQUITIN LIGASE” (ST. JUDE CHILDREN'S RESEARCH HOSPITAL, INC., priority 2020, published 2024).

By IC50 is commonly meant the concentration needed to halve the response being measured.

Chain of interaction between GST-MAGEA11 MHD and FAM-PCF11_4 peptide (MAGE-A11:PCF11) (P43364 218-429): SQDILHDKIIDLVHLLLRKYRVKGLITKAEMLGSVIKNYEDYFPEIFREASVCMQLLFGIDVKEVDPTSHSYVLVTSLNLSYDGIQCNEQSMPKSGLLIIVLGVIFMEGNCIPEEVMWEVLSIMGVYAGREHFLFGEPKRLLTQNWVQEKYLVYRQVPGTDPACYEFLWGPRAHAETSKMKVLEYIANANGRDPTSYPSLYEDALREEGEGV

The target in one experiment is interaction between GST-MAGEA11 MHD and FAM-PCF11_4 peptide (MAGE-A11:PCF11) (Homo sapiens (Human), UniProt P43364). The experiment is described as follows: TR-FRET dose response competition assay for disruption of MAGE-A11:PCF11 binding. Conditions: Dose response TR-FRET screening of nine scaffold groups against MAGE-A11:PCF11; read-out: consensus IC50. The method, boiled down:
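Competition TR-FRET at room temperature in 50 mM Tris pH 7.5, 20 mM MgCl2, 0.1 mg/ml BSA, 1 mM DTT: final 5 nM GST-MAGEA11 MHD, 5 nM Tb-anti-GST, 200 nM FAM-PCF11_4, 90 min. Ratio 520/490 nm converted to % inhibition; IC50 from sigmoidal fit.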
Consider `FC(F)(F)c1cccc(Cc2ccc3c(NCCCNCc4cccc5c4OCO5)ccnc3c2)c1` [SJ000311300-1], for which the IC50 came out at 12.8 µM.
The same measure, in the same setting: to `COc1ccc(F)cc1CNCCCNc1ccnc2cc(Cc3cccc(C(F)(F)F)c3)ccc12` [SJ000311301-2] belongs 22.1 µM; to `COc1cccc(CNCCCNc2ccnc3cc(Cc4ccc(C#N)cc4)ccc23)c1O` [SJ000311303-1], 51 µM.
Turning to `N#Cc1ccc(Cc2ccc3c(NCCCNCc4cccc5c4OCO5)ccnc3c2)cc1` [SJ000311304-1], the IC50 was 66 µM.
Same read-out and setting: for `COc1ccc(F)cc1CNCCCNc1ccnc2cc(Cc3ccc(C#N)cc3)ccc12` [SJ000311305-1] the value was 69.9 µM; for `COc1cccc(CNCCCNc2ccnc3cc(Cc4ccccc4)ccc23)c1O` [SJ000311307-1], 69.9 µM; for `c1ccc(Cc2ccc3c(NCCCNCc4cccc5c4OCO5)ccnc3c2)cc1` [SJ000311308-1], 46.1 µM.
`COc1ccc(F)cc1CNCCCNc1ccnc2cc(Cc3ccccc3)ccc12` [SJ000311309-1]: the IC50 was determined as 18.3 µM.
Still for that read-out and setting: to `COc1cc(Cc2ccc3c(NCCCNCc4cccc(OC)c4O)ccnc3c2)cc(OC)c1` [SJ000311311-1] belongs 33.6 µM.
On the same count and under the same terms, for `COc1cc(Cc2ccc3c(NCCCNCc4cccc5c4OCO5)ccnc3c2)cc(OC)c1` [SJ000311312-1] the value was 31.3 µM; for `COc1cc(Cc2ccc3c(NCCCNCc4cc(F)ccc4OC)ccnc3c2)cc(OC)c1` [SJ000311313-1], 33.8 µM; for `COc1cccc(CNCCCNc2ccnc3cc(Cc4c(Cl)cccc4Cl)ccc23)c1O` [SJ000311315-1], 13.8 µM.
As for `Clc1cccc(Cl)c1Cc1ccc2c(NCCCNCc3cccc4c3OCO4)ccnc2c1` [SJ000311316-1], the IC50 was 11 µM.
As for `COc1ccc(F)cc1CNCCCNc1ccnc2cc(Cc3c(Cl)cccc3Cl)ccc12` [SJ000311317-1], the IC50 worked out at 12.2 µM.
The same measure, in the same setting: to `COc1cccc(CNCCCNc2ccnc3cc(Cc4cc(C)cc(C)c4)ccc23)c1O` [SJ000311319-1] belongs 23.6 µM; to `Cc1cc(C)cc(Cc2ccc3c(NCCCNCc4cccc5c4OCO5)ccnc3c2)c1` [SJ000311320-1], 16.3 µM; to `COc1ccc(F)cc1CNCCCNc1ccnc2cc(Cc3cc(C)cc(C)c3)ccc12` [SJ000311321-1], 9.04 µM.
For the molecule `COc1cccc(CNCCCNc2ccnc3cc(Cc4ccc(F)cc4Cl)ccc23)c1O` [SJ000311323-1], the IC50 was 17.6 µM.
For `Fc1ccc(Cc2ccc3c(NCCCNCc4cccc5c4OCO5)ccnc3c2)c(Cl)c1` [SJ000311324-1], the IC50 worked out at 20.6 µM.
The same measure, in the same setting: for `COc1ccc(F)cc1CNCCCNc1ccnc2cc(Cc3ccc(F)cc3Cl)ccc12` [SJ000311325-1] the value was 17.6 µM; for `COc1cccc(F)c1CNCCCNc1ccnc2cc(Cl)ccc12` [SJ000311328-2], 69.9 µM.
On the same count and under the same terms, to `O=C1C(Cl)=C(NCCN2CCOCC2)C(=O)c2ncccc21` [SJ000312204-6] belongs 2.25 µM; to `Cc1ccccc1-c1nc(S(=O)(=O)c2ccc(F)cc2)c(N2CC(C)OC(C)C2)o1` (stereo not shown) [SJ000329031-1], 69.9 µM.
In the case of `Cc1ccc(S(=O)(=O)c2nc(-c3ccccc3C)oc2N2CC(C)OC(C)C2)cc1` (stereo not shown) [SJ000329041-1], the IC50 is 11.8 µM.
`Cc1ccccc1-c1nc(S(=O)(=O)c2ccc(Cl)cc2)c(N2CC(C)OC(C)C2)o1` (stereo not shown) [SJ000329051-1]: the IC50 came out at 69.9 µM.
On the same count and under the same terms, for `Cc1ccc(S(=O)(=O)c2nc(-c3ccccc3Cl)oc2N2CC(C)OC(C)C2)cc1` (stereo not shown) [SJ000329066-1] the value was 13 µM.
As for `CC1CN(c2oc(-c3ccccc3F)nc2S(=O)(=O)c2ccc(F)cc2)CC(C)O1` (stereo not shown) [SJ000329067-1], the IC50 amounted to 27.3 µM.
Turning to `Clc1ccc2c(NCCCNCc3ccccc3)ccnc2c1` [SJ000361100-1], the IC50 came to 69.9 µM.
Same read-out and setting: to `FC(F)(F)c1ccc2c(NCCCNCc3ccc4c(c3)OCO4)ccnc2c1` [SJ000361106-1] belongs 69.9 µM; to `FC(F)(F)c1ccc2c(NCCCNCc3ccccc3)ccnc2c1` [SJ000361107-1], 69.9 µM.
As for `Clc1ccc2c(NCCCNCc3c4ccccc4cc4ccccc34)ccnc2c1` [SJ000361122-2], the IC50 was 69.9 µM.
On the same count and under the same terms, for `FC(F)(F)c1ccc2c(NCCCNCc3c4ccccc4cc4ccccc34)ccnc2c1` [SJ000361126-1] the value was 69.9 µM.

Staying with this experiment, now noted: Table 5, dose response TR-FRET screening of 59 quinoline compounds against MAGE-A11:PCF11; read-out: TR-FRET IC50.
Consider `c1ccc(Cc2ccc3c(NCCCNCc4ccco4)ccnc3c2)cc1` [SJ000311306-2], for which the IC50 was 32.2 µM.
As to `Clc1cccc(Cl)c1Cc1ccc2c(NCCCNCc3ccco3)ccnc2c1` [SJ000311314-1], the IC50 is 38.4 µM.
Still for that read-out and setting: for `Cc1cc(C)cc(Cc2ccc3c(NCCCNCc4ccco4)ccnc3c2)c1` [SJ000311318-2] the value was over 70 µM; for `Oc1c(F)cc(F)cc1CN(CCCCNc1ccnc2cc(Cl)ccc12)Cc1ccccc1` [SJ000357506-2], over 70 µM.
On the same count and under the same terms, for `CC(C)(C)CCN(CCCCNc1ccnc2cc(Cl)ccc12)Cc1ccccc1` [SJ000357537-2] the value was over 70 µM; for `FC(F)(F)c1ccc2c(NCCCNCc3ccc[nH]3)ccnc2c1` [SJ000361105-1], 33 µM; for `CCCCCCNCCCNc1ccnc2cc(C(F)(F)F)ccc12` [SJ000361124-1], 57.6 µM.
Still for that read-out and setting: for `C=C1C=C(C)C=C(C)C(CN(CCCNc2ccnc3cc(Cl)ccc23)Cc2ccccc2)=C1` [SJ000361169-2] the value was over 70 µM.
For `Clc1ccc2c(NCCCCN(Cc3ccccc3)CC3CCCCC3)ccnc2c1` [SJ000361194-2], the IC50 was over 70 µM.
For the molecule `Clc1ccc(CN(CCCCNc2ccnc3cc(Cl)ccc23)Cc2ccccc2)c(Cl)c1` [SJ000361207-2], the IC50 is over 70 µM.
Consider `CCC(C)CN(CCCCNc1ccnc2cc(Cl)ccc12)Cc1ccccc1` (stereo not shown) [SJ000361208-2], for which the IC50 was over 70 µM.
On to `Cc1ccc(C)c(CN(CCCCNc2ccnc3cc(Cl)ccc23)Cc2ccccc2)c1` [SJ000361209-2], for which the IC50 is over 70 µM.
Regarding `CCCN(CCNc1ccnc2cc(C(F)(F)F)ccc12)Cc1ccc[nH]1` [SJ000361255-1], the IC50 was over 70 µM.
Still for that read-out and setting: to `CCCN(CCCNc1ccnc2cc(C(F)(F)F)ccc12)CC1CC1` [SJ000361266-1] belongs over 70 µM; to `CCCN(CCCNc1ccnc2cc(C(F)(F)F)ccc12)CC1CCCCC1` [SJ000361268-1], over 70 µM.

The experiment is the same for the next values; noted with them: Table 8, representative compounds; read-out: TR-FRET IC50.
For `FC(F)(F)c1cccc(Cc2ccc3c(NCCCNCc4cccc5c4OCO5)ccnc3c2)c1` [SJ000311300], the IC50 came to 12.8 µM.
In the case of `COc1ccc(F)cc1CNCCCNc1ccnc2cc(Cc3cccc(C(F)(F)F)c3)ccc12` [SJ000311301], the IC50 is 22.2 µM.
Still for that read-out and setting: to `COC1CCCC(CNCCCNc2ccnc3cc(Cc4ccc(C#N)cc4)ccc23)C1O` (stereo not shown) [SJ000311303] belongs 51 µM; to `N#Cc1ccc(Cc2ccc3c(NCCCNCc4cccc5c4OCO5)ccnc3c2)cc1` [SJ000311304], 66 µM; to `COc1ccc(F)cc1CNCCCNc1ccnc2cc(Cc3ccc(C#N)cc3)ccc12` [SJ000311305], 69.9 µM.
The same measure, in the same setting: for `COc1cccc(CNCCCNc2ccnc3cc(Cc4ccccc4)ccc23)c1O` [SJ000311307] the value was 69.9 µM; for `c1ccc(Cc2ccc3c(NCCCNCc4cccc5c4OCO5)ccnc3c2)cc1` [SJ000311308], 46.1 µM; for `COc1ccc(F)cc1CNCCCNc1ccnc2cc(Cc3ccccc3)ccc12` [SJ000311309], 18.3 µM.
For `COc1cc(Cc2ccc3c(NCCCNCc4cccc(OC)c4O)ccnc3c2)cc(OC)c1` [SJ000311311], the IC50 came out at 33.6 µM.
The same measure, in the same setting: for `COc1cc(Cc2ccc3c(NCCCNCc4cccc5c4OCO5)ccnc3c2)cc(OC)c1` [SJ000311312] the value was 31.3 µM; for `COc1cc(Cc2ccc3c(NCCCNCc4cc(F)ccc4OC)ccnc3c2)cc(OC)c1` [SJ000311313], 33.8 µM; for `COc1cccc(CNCCCNc2ccnc3cc(Cc4c(Cl)cccc4Cl)ccc23)c1O` [SJ000311315], 13.8 µM.
On to `Clc1cccc(Cl)c1Cc1ccc2c(NCCCNCc3cccc4c3OCO4)ccnc2c1` [SJ000311316], for which the IC50 turned out to be 11 µM.
The same measure, in the same setting: for `COc1ccc(F)cc1CNCCCNc1ccnc2cc(Cc3c(Cl)cccc3Cl)ccc12` [SJ000311317] the value was 12.2 µM; for `COc1cccc(CNCCCNc2ccnc3cc(Cc4cc(C)cc(C)c4)ccc23)c1O` [SJ000311319], 23.6 µM; for `Cc1cc(C)cc(Cc2ccc3c(NCCCNCc4cccc5c4OCO5)ccnc3c2)c1` [SJ000311320], 16.3 µM.
Still for that read-out and setting: to `COc1ccc(F)cc1CNCCCNc1ccnc2cc(Cc3cc(C)cc(C)c3)ccc12` [SJ000311321] belongs 9.04 µM.
As to `COc1cccc(CNCCCNc2ccnc3cc(Cc4ccc(F)cc4Cl)ccc23)c1O` [SJ000311323], the IC50 stood at 17.6 µM.
Same read-out and setting: for `Fc1ccc(Cc2ccc3c(NCCCNCc4cccc5c4OCO5)ccnc3c2)c(Cl)c1` [SJ000311324] the value was 20.6 µM; for `COc1ccc(F)cc1CNCCCNc1ccnc2cc(Cc3ccc(F)cc3Cl)ccc12` [SJ000311325], 17.6 µM.
Still for that read-out and setting: to `COc1cccc(F)c1CNCCCNc1ccnc2cc(Cl)ccc12` [SJ000311328] belongs 69.9 µM; to `CCc1c2c(nc3ccc(OC(=O)N4CCC(N5CCCCC5)CC4)cc13)-c1cc3c(c(=O)n1C2)COC(=O)[C@]3(O)CC` [SJ000312345], over 58.7 µM; to `Clc1ccc2c(NCCCNCc3ccccc3)ccnc2c1` [SJ000361100], 69.9 µM.
With `FC(F)(F)c1ccc2c(NCCCNCc3ccccc3)ccnc2c1` [SJ000361107], the IC50 worked out at 69.9 µM.
Take `Clc1ccc2c(NCCCNCc3c4ccccc4cc4ccccc34)ccnc2c1` [SJ000361122]: the IC50 was determined as 69.9 µM.
The same measure, in the same setting: for `FC(F)(F)c1ccc2c(NCCCNCc3c4ccccc4cc4ccccc34)ccnc2c1` [SJ000361126] the value was 69.9 µM.
